Reference: the supplement of paper PMC10307832

Assays:
Assay in all cases: relative viability (nuclei count vs DMSO), 5 days (fraction); higher = more cells survive
201T = test system: 201T
Outline: (§1)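 Relative viability is defined as nuclei in treated wells over nuclei in vehicle wells. Duplicate plates were run and medians reported. Lung cancer cell lines in 1536-well plates were dosed by pin tool one day after seeding, with one drug or with a fixed anchor-drug dose plus five library-drug doses (not always all listed) in √10 steps, and nuclei were counted after 5 days.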

NCI-H1650 = test system: NCI-H1650
Outline: as §1

BEN = test system: BEN
Outline: as §1

NCI-H2009 = test system: NCI-H2009
Outline: as §1

NCI-H1437 = test system: NCI-H1437
Outline: as §1

ABC-1 = test system: ABC-1
Outline: as §1

HCC-366 = test system: HCC-366
Outline: as §1

CAL-12T = test system: CAL-12T
Outline: as §1

NCI-H3122 = test system: NCI-H3122
Outline: as §1

NCI-H661 = test system: NCI-H661
Outline: as §1

PC-14 = test system: PC-14
Outline: as §1

HARA = test system: HARA
Outline: as §1

NCI-H727 = test system: NCI-H727
Outline: as §1

EKVX = test system: EKVX
Outline: as §1

NCI-H441 = test system: NCI-H441
Outline: as §1

COR-L23 = test system: COR-L23
Outline: as §1

LU99A = test system: LU99A
Outline: as §1

NCI-H2170 = test system: NCI-H2170
Outline: as §1

NCI-H838 = test system: NCI-H838
Outline: as §1

NCI-H1666 = test system: NCI-H1666
Outline: as §1

COR-L 105 = test system: COR-L 105
Outline: as §1

LK-2 = test system: LK-2
Outline: as §1

**Q.** Which results are given for NC(=O)Nc1cc(-c2cccc(F)c2)sc1C(=O)N[C@H]1CCCNC1 [AZD7762] + CS(=O)(=O)N1CCN(Cc2cc3nc(-c4cccc5[nH]ncc45)nc(N4CCOCC4)c3s2)CC1 [Pictilisib] (partner 1 µM)?
**A.** relative viability (201T; first compound 0.01 µM): 0.707; relative viability (201T; first compound 0.03162 µM): 0.689; relative viability (201T; first compound 0.1 µM): 0.668; relative viability (201T; first compound 0.3162 µM): 0.65; relative viability (201T; first compound 1 µM): 0.738; relative viability (NCI-H1650; first compound 0.01 µM): 0.62; relative viability (NCI-H1650; first compound 0.03162 µM): 0.657; relative viability (NCI-H1650; first compound 0.1 µM): 0.515; relative viability (NCI-H1650; first compound 0.3162 µM): 0.391; relative viability (NCI-H1650; first compound 1 µM): 0.155; relative viability (BEN; first compound 0.01 µM): 0.713; relative viability (BEN; first compound 0.03162 µM): 0.689; relative viability (BEN; first compound 0.1 µM): 0.537; relative viability (BEN; first compound 0.3162 µM): 0.539; relative viability (BEN; first compound 1 µM): 0.41; relative viability (NCI-H2009; first compound 0.01 µM): 0.867; relative viability (NCI-H2009; first compound 0.03162 µM): 0.865; relative viability (NCI-H2009; first compound 0.1 µM): 0.909; relative viability (NCI-H2009; first compound 0.3162 µM): 0.677; relative viability (NCI-H2009; first compound 1 µM): 0.321; relative viability (NCI-H1437; first compound 0.01 µM): 0.501; relative viability (NCI-H1437; first compound 0.03162 µM): 0.442; relative viability (NCI-H1437; first compound 0.1 µM): 0.483; relative viability (NCI-H1437; first compound 0.3162 µM): 0.555; relative viability (NCI-H1437; first compound 1 µM): 0.477; relative viability (ABC-1; first compound 0.01 µM): 0.72; relative viability (ABC-1; first compound 0.03162 µM): 0.84; relative viability (ABC-1; first compound 0.1 µM): 0.611; relative viability (ABC-1; first compound 0.3162 µM): 0.462; relative viability (ABC-1; first compound 1 µM): 0.245; relative viability (HCC-366; first compound 0.01 µM): 0.153; relative viability (HCC-366; first compound 0.03162 µM): 0.128; relative viability (HCC-366; first compound 0.1 µM): 0.213; relative viability (HCC-366; first compound 0.3162 µM): 0.137; relative viability (HCC-366; first compound 1 µM): 0.133; relative viability (CAL-12T; first compound 0.01 µM): 0.413; relative viability (CAL-12T; first compound 0.03162 µM): 0.521; relative viability (CAL-12T; first compound 0.1 µM): 0.385; relative viability (CAL-12T; first compound 0.3162 µM): 0.405; relative viability (CAL-12T; first compound 1 µM): 0.238; relative viability (NCI-H3122; first compound 0.01 µM): 0.623; relative viability (NCI-H3122; first compound 0.03162 µM): 0.646; relative viability (NCI-H3122; first compound 0.1 µM): 0.638; relative viability (NCI-H3122; first compound 0.3162 µM): 0.333; relative viability (NCI-H3122; first compound 1 µM): 0.332; relative viability (NCI-H661; first compound 0.01 µM): 0.41; relative viability (NCI-H661; first compound 0.03162 µM): 0.406; relative viability (NCI-H661; first compound 0.1 µM): 0.356; relative viability (NCI-H661; first compound 0.3162 µM): 0.316; relative viability (NCI-H661; first compound 1 µM): 0.312; relative viability (PC-14; first compound 0.01 µM): 0.763; relative viability (PC-14; first compound 0.03162 µM): 0.795; relative viability (PC-14; first compound 0.1 µM): 0.67; relative viability (PC-14; first compound 0.3162 µM): 0.474; relative viability (PC-14; first compound 1 µM): 0.309; relative viability (HARA; first compound 0.01 µM): 0.346; relative viability (HARA; first compound 0.03162 µM): 0.435; relative viability (HARA; first compound 0.1 µM): 0.353; relative viability (HARA; first compound 0.3162 µM): 0.412; relative viability (HARA; first compound 1 µM): 0.32; relative viability (NCI-H727; first compound 0.01 µM): 0.429; relative viability (NCI-H727; first compound 0.03162 µM): 0.346; relative viability (NCI-H727; first compound 0.1 µM): 0.321; relative viability (NCI-H727; first compound 0.3162 µM): 0.243; relative viability (NCI-H727; first compound 1 µM): 0.269; relative viability (EKVX; first compound 0.01 µM): 0.459; relative viability (EKVX; first compound 0.03162 µM): 0.451; relative viability (EKVX; first compound 0.1 µM): 0.462; relative viability (EKVX; first compound 0.3162 µM): 0.327; relative viability (EKVX; first compound 1 µM): 0.276; relative viability (NCI-H441; first compound 0.01 µM): 0.494; relative viability (NCI-H441; first compound 0.03162 µM): 0.594; relative viability (NCI-H441; first compound 0.1 µM): 0.7; relative viability (NCI-H441; first compound 0.3162 µM): 0.556; relative viability (NCI-H441; first compound 1 µM): 0.555; relative viability (COR-L23; first compound 0.01 µM): 0.743; relative viability (COR-L23; first compound 0.03162 µM): 0.86; relative viability (COR-L23; first compound 0.1 µM): 0.818; relative viability (COR-L23; first compound 0.3162 µM): 0.68; relative viability (COR-L23; first compound 1 µM): 0.288; relative viability (LU99A; first compound 0.01 µM): 0.381; relative viability (LU99A; first compound 0.03162 µM): 0.331; relative viability (LU99A; first compound 0.1 µM): 0.324; relative viability (LU99A; first compound 0.3162 µM): 0.319; relative viability (LU99A; first compound 1 µM): 0.207; relative viability (NCI-H2170; first compound 0.01 µM): 0.322; relative viability (NCI-H2170; first compound 0.03162 µM): 0.338; relative viability (NCI-H2170; first compound 0.1 µM): 0.326; relative viability (NCI-H2170; first compound 0.3162 µM): 0.292; relative viability (NCI-H2170; first compound 1 µM): 0.247; relative viability (NCI-H838; first compound 0.01 µM): 0.544; relative viability (NCI-H838; first compound 0.03162 µM): 0.45; relative viability (NCI-H838; first compound 0.1 µM): 0.471; relative viability (NCI-H838; first compound 0.3162 µM): 0.53; relative viability (NCI-H838; first compound 1 µM): 0.25; relative viability (NCI-H1666; first compound 0.01 µM): 0.603; relative viability (NCI-H1666; first compound 0.03162 µM): 0.407; relative viability (NCI-H1666; first compound 0.1 µM): 0.55; relative viability (NCI-H1666; first compound 0.3162 µM): 0.589; relative viability (NCI-H1666; first compound 1 µM): 0.411; relative viability (COR-L 105; first compound 0.01 µM): 0.486; relative viability (COR-L 105; first compound 0.03162 µM): 0.365; relative viability (COR-L 105; first compound 0.1 µM): 0.31; relative viability (COR-L 105; first compound 0.3162 µM): 0.353; relative viability (COR-L 105; first compound 1 µM): 0.242; relative viability (LK-2; first compound 0.01 µM): 0.628; relative viability (LK-2; first compound 0.03162 µM): 0.485; relative viability (LK-2; first compound 0.1 µM): 0.482; relative viability (LK-2; first compound 0.3162 µM): 0.481; relative viability (LK-2; first compound 1 µM): 0.34
